This is an account of results in publication PMC10650850, “Discovery, Structure–Activity Relationship and In Vitro Anticancer Activity of Small-Molecule Inhibitors of the Protein–Protein Interactions between AF9/ENL and AF4 or DOT1L” (Cancers, 2023).

Where a name gives a salt, the structure may show the parent alone.

The first test addresses T1, AF9-DOT1L interaction (Homo sapiens, UniProt P42568).
T1 construct: human AF9 AHD domain (475–568); made in house; host or cells: E. coli BL21(DE3)
T1 sequence (P42568 475-568): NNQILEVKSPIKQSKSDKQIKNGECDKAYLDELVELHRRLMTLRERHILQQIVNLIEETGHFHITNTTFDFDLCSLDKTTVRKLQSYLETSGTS
The test is described as follows: AlphaLisa assay, AF9-DOT1L interaction.
Conditions: not given
Type of test: binding. From the text:
An AlphaLisa assay we previously developed was used for compound screening for inhibitors of the AF9-DOT1L interaction. The PPI takes the DOT1L-peptide coated donor beads and AF9 AHD coated acceptor beads together. The donor beads are illuminated with a laser beam (680 nm) to generate singlet oxygen radicals, which activate the adjacent acceptor beads to produce luminescence at 615 nm. When a compound can disrupt such PPI and separate the donor and acceptor beads, the highly unstable radicals are rapidly quenched by water without generating luminescence.
The cDNA for the human AF9 AHD domain (475–568) and ENL AHD domain (489–559) was synthesized (by Genscript, Piscataway, NJ, USA) and inserted into the pMAL c5X expression plasmid. The DOT1L peptide (Biotin-AHX-[…]) and AF4 peptide (Biotin-AHX-[…]) for the Alpha assay were purchased from Genscript.
Alpha assays were developed in our previous publication, using a Perkin-Elmer AlphaLisa anti-MBP kit, which contains streptavidin donor beads and anti-MBP acceptor beads. Briefly, the assay was performed using a MBP-protein (5 nM), a biotinylated peptide (40 nM), and increasing concentrations of a compound in 25 µL buffer (PBS with 0.5% BSA, pH 7.5) in 384-well plates according to the manufacturer’s protocol and measured with a Tecan SPARK microplate reader. Data were imported into Prism (version 5.0), and IC50 values from 3 independent experiments with standard deviation were obtained by using a standard dose-response curve fitting.
Background: Alpha assays give light when donor and acceptor beads are brought close together.
For `Cl.O=C(NCC1CCNCC1)c1cc2ccc(-c3ccc(C(=O)N4CCC(N5CCCCC5)CC4)cc3)cc2s1` [Compound 33, 6-(4-(4-(Piperidin-1-yl)piperidin-1-carbonyl)phenyl)-N-(piperidin-4-ylmethyl)-benzo[b]thiophene-2-carboxamide hydrochloride], the “Inhibitory activity against the AF9-DOT1L interaction (in words)” value was “inactive”.

The same test, now with this note: MBP-protein 5 nM, biotinylated peptide 40 nM, 3 independent experiments with standard deviation, read-out: IC50 (μM) against the AF9-DOT1L interaction.
As for `O=C(NCC1CCNCC1)c1cc2ccc(Nc3ccc(N4CCCCC4)cc3)cc2s1` [Compound 35, 6-((4-(Piperidin-1-yl)phenyl)amino)-N-(piperidin-4-ylmethyl)-benzo[b]thiophene-2-carboxamide hydrochloride], the half-maximal inhibitory concentration (IC50) (as a rule, the concentration needed to halve the response being measured) turned out to be 2.3 ± 0.2 µM.

Still in this test, the particulars now being: compound at 5 μM.
On to “5-(4-(Tert-butyl)phenyl)-N-(piperidin-4-ylmethyl)-benzo[b]thiophene-2-carboxamide hydrochloride [Compound 55]”, for which the % Inhibition (usually the percentage by which the read-out fell short of the control) at 5 μM against the AF9-DOT1L interaction is listed as 45%.

The test is the same for the next values; noted with them: compound at 5 μM, read-out: % Inhibition at 5 μM against the AF9-DOT1L interaction.
On to `O=C(NCC1CCNCC1)c1cc2ccc(-c3cccc(-c4ccccc4)c3)cc2o1` [Compound 68, 6-((1,1′-Biphenyl)-3-yl)-N-(piperidin-4-ylmethyl)-benzofuran-2-carboxamide hydrochloride], for which the inhibition (usually the drop in the measured response relative to a control, in per cent) at 5 µM amounted to 33%. Same read-out and setting: as for `O=C(NCC1CCNCC1)c1cc2ccc(-c3ccc(C(=O)N4CCCCCC4)cc3)cc2o1` [Compound 65, 6-(4-((Azepane-1-yl)carbonyl)phenyl)-N-(piperidin-4-ylmethyl)-benzofuran-2-carboxamide hydrochloride], the figure is 0%; as for `O=C(NCC1CCNCC1)c1cc2ccc(-c3ccc(CN4CCCCC4)cc3)cc2s1` [Compound 28, 6-(4-(Piperidin-1-ylmethyl)phenyl)-N-(piperidin-4-ylmethyl)-benzo[b]thiophene-2-carboxamide hydrochloride], 45%; as for `COc1ccc(-c2ccc3cc(C(=O)NCC4CCNCC4)sc3c2)cc1` [Compound 45, 6-(4-Methoxylphenyl)-N-(piperidin-4-ylmethyl)-benzo[b]thiophene-2-carboxamide hydrochloride], 43%. The same measure, in the same setting: as for `O=C(NCC1CCNCC1)c1cc2cc(-c3ccc(N4CCNCC4)cc3)ccc2[nH]1` [Compound 18], the figure is 36%. The same measure, in the same setting: the result for `NCc1ccc(-c2ccc3c(C(=O)NCC4CCNCC4)c[nH]c3c2)cc1` [Compound 14] reads 11%; that for `O=C(NCC1CCNCC1)c1cc2ccc(N3CCC(N4CCCC4)CC3)cc2s1` [Compound 32], 20%.

In the case of `O=C(NCC1CCNCC1)c1cc2ccc(-c3ccc4c(c3)OCCO4)cc2o1` [Compound 69, 6-(2,3-Dihydrobenzo[b][1,4]dioxin-6-yl)-N-(piperidin-4-ylmethyl)-benzofuran-2-carboxamide hydrochloride], the inhibition at 5 µM came out at 33%. As for `Cc1cc(C#N)ccc1-c1ccc2[nH]c(C(=O)NCC3CCNCC3)cc2c1` [Compound 21], the inhibition at 5 µM amounted to 0%. Consider `O=C(NCC1CCNCC1)c1cc2ccc(-c3ccc(-c4ccsc4)cc3)cc2[nH]1` [Compound 6], for which the inhibition at 5 µM was found to be 14%. Turning to `CC(=O)Nc1ccc(-c2ccc3cc(C(=O)NCC4CCNCC4)sc3c2)cc1` [Compound 38, 6-(4-(Acetamido)phenyl)-N-(piperidin-4-ylmethyl)-benzo[b]thiophene-2-carboxamide hydrochloride], the inhibition at 5 µM amounted to 0%.

For `O=C(NCC1CCNCC1)c1cc2ccc(-c3ccc(C4CCCCC4)cc3)cc2[nH]1` [Compound 4, 6-(4-Cyclohexylphenyl)-N-(piperidin-4-ylmethyl)-1H-indole-2-carboxamide hydrochloride], the inhibition at 5 µM was 31%. Same read-out and setting: the result for `O=C(NCC1CCNCC1)c1c[nH]c2cc(-c3ccc(N4CCOCC4)cc3)ccc12` [Compound 13, 6-(4-(Morpholinophenyl)-N-(piperidin-4-ylmethyl)-1H-indole-3-carboxamide hydrochloride] reads 29%. The same measure, in the same setting: as for `O=C(NCC1CCNCC1)c1cc2ccc(Oc3ccc(Oc4ccc(Cl)cc4)cc3)cc2o1` [Compound 77, 6-(4-(4-Cholorophenoxyl)phenoxyl)-N-(piperidin-4-ylmethyl)-benzofuran-2-carboxamide hydrochloride], the figure is 20%; as for `CC(=O)c1ccc(-c2ccc3cc(C(=O)NCC4CCNCC4)[nH]c3c2)cc1` [Compound 8, 6-(4-Acetophenyl)-N-(piperidin-4-ylmethyl)-1H-indole-2-carboxamide hydrochloride], 37%; as for `O=C(NCC1CCNCC1)c1cc2ccc(-c3ccc(C(=O)N4CCCC4)cc3)cc2o1` [Compound 63, 6-(4-((Pyrrolidine-1-yl)carbonyl)phenyl)-N-(piperidin-4-ylmethyl)-benzofuran-2-carboxamide hydrochloride], 1%. The same measure, in the same setting: as for `O=C(NCC1CCNCC1)c1cc2cc(-c3ccc(C(=O)N4CCCC4)cc3)ccc2s1` [Compound 52], the figure is 0%; as for `O=C(NCC1CCNCC1)c1c[nH]c2ccc(-c3ccc(N4CCCCC4)cc3)cc12` [Compound 23, 5-(4-(Piperidin-1-yl)phenyl)-N-(piperidin-4-ylmethyl)-1H-indole-3-carboxamide hydrochloride], 43%.

With `O=C(NCC1CCNCC1)c1cc2ccc(-c3ccc(F)cc3)cc2s1` [Compound 49, 6-(4-Fluorophenyl)-N-(piperidin-4-ylmethyl)-benzo[b]thiophene-2-carboxamide hydrochloride], the inhibition at 5 µM amounted to 21%. Still for that read-out and setting: the result for `O=C(NCC1CCNCC1)c1cc2ccc(-c3ccc(CO)cc3)cc2s1` [Compound 39, 6-(4-(Hydroxylmethyl)phenyl)-N-(piperidin-4-ylmethyl)-benzo[b]thiophene-2-carboxamide hydrochloride] reads 0%. Still for that read-out and setting: as for `O=C(NCC1CCNCC1)c1cc2ccc(-c3ccc(C(=O)N4CCCC4)cc3)cc2s1` [Compound 30], the figure is 0%; as for `O=C(NCC1CCNCC1)c1cc2ccc(-c3ccc(Cl)cc3)cc2s1` [Compound 48, 6-(4-Chlorophenyl)-N-(piperidin-4-ylmethyl)-benzo[b]thiophene-2-carboxamide hydrochloride], roughly 50%.

Consider `O=C(NCC1CCNCC1)c1cc2ccc(-c3ccc(N4CCOCC4)cc3)cc2s1` [Compound 26, 6-(4-(Morpholino)phenyl)-N-(piperidin-4-ylmethyl)-benzo[b]thiophene-2-carboxamide hydrochloride], for which the inhibition at 5 µM worked out at 40%. For the molecule `O=C(NCC1CCNCC1)c1cc2ccc(-c3ccc(OC(F)(F)F)cc3)cc2s1` [Compound 44, 6-(4-Trifluoromethoxylphenyl)-N-(piperidin-4-ylmethyl)-benzo[b]thiophene-2-carboxamide hydrochloride], the inhibition at 5 µM is 14%. For `N#Cc1ccc(-c2ccc3sc(C(=O)NCC4CCNCC4)cc3c2)cc1` [Compound 53, 5-(4-Cyanophenyl)-N-(piperidin-4-ylmethyl)-benzo[b]thiophene-2-carboxamide hydrochloride], the inhibition at 5 µM came to 23%. The same measure, in the same setting: the result for `COc1ccc(Oc2ccc3cc(C(=O)NCC4CCNCC4)oc3c2)cc1` [Compound 76, 6-(4-Methoxylphenoxyl)-N-(piperidin-4-ylmethyl)-benzofuran-2-carboxamide hydrochloride] reads 24%; that for `O=C(NCC1CCNCC1)c1cc2ccc(Nc3ccc(OC(F)(F)F)cc3)cc2o1` [Compound 75, 6-((4-Trifuluoromethoxyl)phenyl)amino)-N-(piperidin-4-ylmethyl)-benzofuran-2-carboxamide hydrochloride], 23%; that for `CC(C)(C)c1ccc(-c2ccc3[nH]c(C(=O)NCC4CCNCC4)cc3c2)cc1` [Compound 19], 13%. The same measure, in the same setting: as for `O=C(NCC1CCNCC1)c1cc2ccc(-c3ccc(N4CCNCC4)cc3)cc2o1` [Compound 59, 6-(4-(Piperazin-1-yl)phenyl)-N-(piperidin-4-ylmethyl)-benzofuran-2-carboxamide hydrochloride], the figure is 38%; as for `N#Cc1ccc(-c2ccc3cc(C(=O)NCC4CCNCC4)oc3c2)cc1` [Compound 73, 6-(4-Cyanophenyl)-N-(piperidin-4-ylmethyl)-benzofuran-2-carboxamide hydrochloride], 15%; as for `Cl.O=C(NCC1CCNCC1)c1cc2ccc(-c3ccc(C(=O)N4CCC(N5CCCCC5)CC4)cc3)cc2s1` [Compound 33, 6-(4-(4-(Piperidin-1-yl)piperidin-1-carbonyl)phenyl)-N-(piperidin-4-ylmethyl)-benzo[b]thiophene-2-carboxamide hydrochloride], 0%. Still for that read-out and setting: as for `CN1CCN(c2ccc(-c3ccc4cc(C(=O)NCC5CCNCC5)oc4c3)cc2)CC1` [Compound 60, 6-(4-(4-Methylpiperazin-1-yl)phenyl)-N-(piperidin-4-ylmethyl)-benzofuran-2-carboxamide hydrochloride], the figure is 32%. For the molecule `O=C(NCC1CCNCC1)c1cc2ccc(-c3ccc(C(=O)N4CCCCC4)cc3)cc2s1` [Compound 29, 6-(4-(Piperidine-1-carbonyl)phenyl)-N-(piperidin-4-ylmethyl)-benzo[b]thiophene-2-carboxamide hydrochloride], the inhibition at 5 µM worked out at 8%.
